Laboratory results reported in ChEMBL document CHEMBL1201862, “PubChem BioAssay data set” (2004).
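Compound exposure: 48 hours, 5 concentrations, 96-well plates. GI50 marks 50% less growth.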 Calls of active or inactive are those of the source. No stated cut-off is given here; in the data, active = GI50 up to about 1.1 µM and inactive = higher. Where a SMILES comes first, the peptide text is derived from it. [ ]: non-standard residue; d: D form. The star is where a group is joined. ξ: configuration not given here. ξPhe(4-NO2) = NC(Cc1ccc([N+](=O)[O-])cc1)C(=O)O; Boc = CC(C)(C)OC(=O)*; OBn = c1ccc(CO*)cc1

What was measured:
Experiment in all cases: NCI anticancer screen, dose series, 48 h
CAKI-1 = tested on: CAKI-1
OVCAR-8 = tested on: OVCAR-8
CCRF-CEM = tested on: CCRF-CEM
DU-145 = tested on: DU-145
IGROV-1 = tested on: IGROV-1
Malme-3M = tested on: Malme-3M
SNB-19 = tested on: SNB-19
SK-MEL-2 = tested on: SK-MEL-2
UACC-62 = tested on: UACC-62
NCI-H23 = tested on: NCI-H23
OVCAR-4 = tested on: OVCAR-4
LOX IMVI = tested on: LOX IMVI
Hs-578T = tested on: Hs-578T
SN12C = tested on: SN12C
KM12 = tested on: KM12
MDA-MB-231 = tested on: MDA-MB-231
HOP-92 = tested on: HOP-92
COLO 205 = tested on: COLO 205
A549 = tested on: A549
UO-31 = tested on: UO-31

SMILES | GI50 (CAKI-1) | GI50 (OVCAR-8) | GI50 (CCRF-CEM) | GI50 (DU-145) | GI50 (IGROV-1) | GI50 (Malme-3M) | GI50 (SNB-19) | GI50 (SK-MEL-2) | GI50 (UACC-62) | GI50 (NCI-H23) | GI50 (OVCAR-4) | GI50 (LOX IMVI) | GI50 (Hs-578T) | GI50 (SN12C) | GI50 (KM12) | GI50 (MDA-MB-231) | GI50 (HOP-92) | GI50 (COLO 205) | GI50 (A549) | GI50 (UO-31)
CCOC(=O)c1c(SCCN2CCCC2)n(-c2ccccc2)c(=S)n(-c2ccccc2)c1=O | 2.29 µM (inactive) | 1.95 µM (inactive) | 0.951 µM (active) | 1.68 µM (inactive) | 2.03 µM (inactive) | 1.56 µM (inactive) | 17.4 µM (inactive) | 11.4 µM (inactive) | 2.79 µM (inactive) | 9.57 µM (inactive) | 13.1 µM (inactive) | 1.82 µM (inactive) | 4.7 µM (inactive) | 1.71 µM (inactive) | 15.8 µM (inactive) | 2.08 µM (inactive) | 1.6 µM (inactive) | 1.84 µM (inactive) | 4.02 µM (inactive) | –
Cc1ccc2nc(CC(=O)c3ccc4ccccc4c3)c(O)nc2c1 | > 100 µM (inactive) | > 100 µM (inactive) | > 100 µM (inactive) | > 100 µM (inactive) | > 100 µM (inactive) | > 100 µM (inactive) | > 100 µM (inactive) | > 100 µM (inactive) | > 100 µM (inactive) | > 100 µM (inactive) | > 100 µM (inactive) | > 100 µM (inactive) | > 100 µM (inactive) | > 100 µM (inactive) | > 100 µM (inactive) | > 100 µM (inactive) | > 100 µM (inactive) | > 100 µM (inactive) | > 100 µM (inactive) | > 100 µM (inactive)
CC(C)(C)OC(=O)NC(Cc1ccc([N+](=O)[O-])cc1)C(=O)NCC(=O)OCc1ccccc1 (stereo unspecified) (Boc-[ξPhe(4-NO2)]-Gly-OBn) | 13.1 µM (inactive) | 22.2 µM (inactive) | 13.9 µM (inactive) | 30.1 µM (inactive) | > 100 µM (inactive) | 23.8 µM (inactive) | 55.3 µM (inactive) | – | 17 µM (inactive) | 20.2 µM (inactive) | 25.9 µM (inactive) | 14.1 µM (inactive) | 22.3 µM (inactive) | 20.7 µM (inactive) | 31.4 µM (inactive) | 31.3 µM (inactive) | 34 µM (inactive) | 17.1 µM (inactive) | 47.4 µM (inactive) | 23.9 µM (inactive)
c1ccc2c(c1)Cn1c-2nc2ccccc21 | > 100 µM (inactive) | > 100 µM (inactive) | > 100 µM (inactive) | 23.9 µM (inactive) | > 100 µM (inactive) | 76 µM (inactive) | > 100 µM (inactive) | > 100 µM (inactive) | > 100 µM (inactive) | > 100 µM (inactive) | > 100 µM (inactive) | > 100 µM (inactive) | > 100 µM (inactive) | > 100 µM (inactive) | > 100 µM (inactive) | > 100 µM (inactive) | > 100 µM (inactive) | 98.4 µM (inactive) | 67.6 µM (inactive) | 4.83 µM (inactive)
Clc1ccc2c(c1)N(CCCN1CCCC13CCCCC3)c1ccccc1S2 | 24.2 µM (inactive) | 16.5 µM (inactive) | 4.06 µM (inactive) | 16.6 µM (inactive) | 12.3 µM (inactive) | 14.2 µM (inactive) | 13.7 µM (inactive) | 9.77 µM (inactive) | 16.6 µM (inactive) | 16.1 µM (inactive) | 15.4 µM (inactive) | 12.4 µM (inactive) | 13.5 µM (inactive) | 13.4 µM (inactive) | 13.8 µM (inactive) | 8.85 µM (inactive) | 10.4 µM (inactive) | > 39.2 µM (inactive) | 17.3 µM (inactive) | 8.38 µM (inactive)
COc1ccc(-c2c3c(n(C4OC(CO)C(O)C(O)C4O)c(=S)c2C#N)CC(C)(C)CC3=O)cc1 (stereo unspecified) | > 100 µM (inactive) | > 100 µM (inactive) | > 100 µM (inactive) | > 100 µM (inactive) | > 100 µM (inactive) | > 100 µM (inactive) | > 100 µM (inactive) | > 100 µM (inactive) | 97.3 µM (inactive) | > 100 µM (inactive) | > 100 µM (inactive) | > 100 µM (inactive) | > 100 µM (inactive) | > 100 µM (inactive) | > 100 µM (inactive) | > 100 µM (inactive) | > 100 µM (inactive) | > 100 µM (inactive) | > 100 µM (inactive) | > 100 µM (inactive)
COC(=O)c1c(C)cccc1C1CN=NC12Cc1ccc(C)c(C)c1C2=O (stereo unspecified) | > 100 µM (inactive) | 27.1 µM (inactive) | 24.3 µM (inactive) | 54.6 µM (inactive) | 46.2 µM (inactive) | 28.6 µM (inactive) | 50.9 µM (inactive) | – | 15.3 µM (inactive) | 46.5 µM (inactive) | 24.9 µM (inactive) | 3.21 µM (inactive) | 37.7 µM (inactive) | 50 µM (inactive) | 34.3 µM (inactive) | 39.4 µM (inactive) | 28.6 µM (inactive) | – | 18.2 µM (inactive) | 42.4 µM (inactive)
